Test results from US9776991B2, “Thienomethylpiperazine derivatives as inhibitors of soluble epoxide hydrolase” (SANOFI, priority 2013, dated 2017).

biological target: recombinant sEH (soluble epoxide hydrolase, EPHX2) (Homo sapiens (Human), UniProt P34913); assay: biochemical fluorometric sEH inhibition assay with Phome substrate; conditions: recombinant sEH purified from Sf9 insect cells, 2 nM sEH, 5 μM Phome, 60 minutes at 30° C.
Experimental: Compounds were tested in a biochemical screening assay using recombinant sEH purified from Sf9 insect cells and an artificial substrate, (3-phenyl-oxiranyl)-acetic acid cyano-(6-methoxy-naphtalen-2-yl)-methyl ester, Phome. The biochemical assay was performed in analogy to a fluorometric described in the literature (P. D. Jones et al., Anal. Biochem. 2005, 343, 66-75). The assay principle bases on the sEH-catalyzed hydrolysis of an artificial α-cyano-ester substrate. O-deacetylation liberates a cyanohydrin intermediate that rapidly decomposes to the highly fluorescent 6-methoxy-2-naphtaldehyde. To discriminate sample autofluorescence, the assay was carried out as a kinetic measurement with two time points. The first measurement is performed immediately before addition of the substrate and the […] measurement is done after completion of the assay. The assay format is either in 96- or in 384-well format.
Details of the assay using a 96-well plate format are described below. 40 μl recombinant sEH enzyme and 5 μl test compound are pre-incubated for 15 minutes at 30° C. Following pre-incubation, the reaction is started by addition of 5 μl Phome. The assay mixture containing 2 nM final sEH concentration, test compound ranging in a concentration from 0.0001-10 μM and 5 μM Phome is incubated for 60 minutes at 30° C.
Fluorescence is measured with any suitable detector for instance a TECAN Safire or Tecan Ultra at […]. % inhibition of recombinant sEH activity is used for calculation of corresponding IC50 values as illustrated and described in the examples.
The NCBI gene bank reference sequence with the accession number NM_001979 for EPHX2/sEH was applied for recombinant protein production:
The following commercially available materials have been used: • Incubation reagent: 25 mM Hepes (Sigma-Aldrich, Cat. No H-3375), 0.01% bovine albumin (Sigma-Aldrich Cat. No PA9205) • Substrate: 3-Phenyl-oxiranyl)-acetic acid cyano-(6-methoxy-naphtalen-2-yl)-methyl ester, Phome (Biozol Cat. No 10003134) • Microtiter plates: 96-well plates (Greiner Cat. No 655180; Costar Cat. No 3915)

Sequence of recombinant sEH (soluble epoxide hydrolase, EPHX2) (P34913 whole entry): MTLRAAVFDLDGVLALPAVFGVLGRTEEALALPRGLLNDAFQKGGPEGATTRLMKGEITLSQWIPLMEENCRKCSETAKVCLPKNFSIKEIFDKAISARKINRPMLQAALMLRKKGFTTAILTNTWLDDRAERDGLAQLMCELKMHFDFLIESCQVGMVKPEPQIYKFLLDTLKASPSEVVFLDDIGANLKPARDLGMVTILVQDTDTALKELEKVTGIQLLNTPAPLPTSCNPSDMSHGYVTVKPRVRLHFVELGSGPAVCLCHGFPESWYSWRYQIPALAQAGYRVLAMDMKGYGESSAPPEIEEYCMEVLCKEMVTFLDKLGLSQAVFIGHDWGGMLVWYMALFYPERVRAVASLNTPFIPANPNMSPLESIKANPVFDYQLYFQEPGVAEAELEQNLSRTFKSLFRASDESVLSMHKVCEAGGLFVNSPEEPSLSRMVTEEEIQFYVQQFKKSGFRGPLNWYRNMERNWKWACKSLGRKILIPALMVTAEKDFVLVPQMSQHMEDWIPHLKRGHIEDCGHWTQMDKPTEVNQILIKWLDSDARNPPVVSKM

Row | SMILES | IC50 [nM]
1 | COc1ccc(CNC(=O)c2ccc(CN3CCN(c4ccccn4)CC3)s2)c(OC(F)(F)F)c1 [Example 124] | 1.69
2 | O=C(NCc1ccc(Cl)cc1Cl)c1cnc(CN2CCN(C(=O)c3cccc(O)n3)CC2)s1 [Example 175] | 20.4
3 | Cn1nc(C(C)(C)C)cc1C(=O)N1CCN(Cc2ccc(C(=O)NCc3ccccc3C(F)(F)F)s2)CC1 [Example 25] | 2.76
4 | Cc1noc(C)c1CC(=O)N1CCN(Cc2ncc(C(=O)NCc3ccc(Cl)cc3Cl)s2)CC1 [Example 165] | 9.61
5 | COc1ccc(CNC(=O)c2ccc(CN3CCN(C)C(=O)C3)s2)c(OC(F)(F)F)c1 [Example 134] | 2.15
6 | CCn1nc(C)c(Br)c1C(=O)N1CCN(Cc2ccc(C(=O)NCCC(C)C)s2)CC1 [Example 99] | 1.53
7 | CN(C)CCC(=O)N1CCN(Cc2ncc(C(=O)NCc3ccc(Cl)cc3Cl)s2)CC1 [Example 199] | 208
8 | CC(C)(O)C(=O)N1CCN(Cc2ncc(C(=O)NCc3ccc(Cl)cc3Cl)s2)CC1 [Example 172] | 10.8
9 | CC(C(=O)N1CCN(Cc2ccc(C(=O)NCc3ccccc3C(F)(F)F)s2)CC1)c1ccccc1 (stereo not shown) [Example 98] | 1.52
10 | Cn1ncc(Br)c1C(=O)N1CCN(Cc2ccc(C(=O)NCc3ccccc3C(F)(F)F)s2)CC1 [Example 52] | 0.955
11 | O=C(NCc1ccc(Cl)cc1Cl)c1cnc(CN2CCN(C(=O)CCO)CC2)s1 [Example 163] | 25.2
12 | CNC(=O)c1cccnc1N1CCN(Cc2ccc(C(=O)NCc3ccccc3OC(F)(F)F)s2)CC1 [Example 135] | 2.14
13 | CCC(C)(O)C(=O)N1CCN(Cc2ccc(C(=O)NCc3ccccc3OC(F)(F)F)s2)CC1 (stereo not shown) [Example 95] | 1.51
14 | O=C(NCc1ccccc1OC(F)(F)F)c1ccc(CN2CCN(C(=O)CCO)CC2)s1 [Example 106] | 2.18
15 | COCCCC(=O)N1CCN(Cc2ncc(C(=O)NCc3ccc(Cl)cc3Cl)s2)CC1 [Example 166] | 21.3
16 | Cc1ccc(C(=O)N2CCN(Cc3ccc(C(=O)NCc4ccc(Cl)cc4Cl)s3)CC2)s1 [Example 154] | 2.05

Row | SMILES | IC50 [nM]
17 | NC(CF)C(=O)N1CCN(Cc2ccc(C(=O)NCc3ccc(Cl)cc3Cl)s2)CC1 (stereo not shown) [Example 48] | 2.69
18 | CC1(C)SCN[C@H]1C(=O)N1CCN(Cc2ccc(C(=O)NCc3ccc(Cl)cc3Cl)s2)CC1 [Example 103] | 2.32
19 | CC(C(=O)N1CCN(Cc2ncc(C(=O)NCc3ccc(Cl)cc3Cl)s2)CC1)N1CCCC1=O (stereo not shown) [Example 169] | 8.76
20 | NC1(C(=O)N2CCN(Cc3ccc(C(=O)NCc4ccccc4OC(F)(F)F)s3)CC2)CCC1 [Example 143] | 1.85
21 | COCc1cc(O)nc(N2CCN(Cc3ccc(C(=O)NCc4ccc(Cl)cc4Cl)s3)CC2)n1 [Example 21] | 2.9
22 | CO[C@H](C)C(=O)N1CCN(Cc2ncc(C(=O)NCc3ccc(Cl)cc3Cl)s2)CC1 [Example 204] | 18.8
23 | O=C(NCc1ccc(Cl)cc1Cl)c1ccc(CN2CCN(C(=O)Cc3cccc(C(F)(F)F)c3)CC2)s1 [Example 100] | 2.3
24 | O=C(NCc1ccccc1OC(F)(F)F)c1ccc(CN2CCN(C(=O)CN3CCOC3=O)CC2)s1 [Example 156] | 2
25 | O=C(NCc1ccccc1C(F)(F)F)c1ccc(CN2CCN(C(=O)c3cccnc3)CC2)s1 [Example 4] | 0.168
26 | COc1cc(CNC(=O)c2ccc(CN3CCN(C(=O)C4CC(=O)OC4(C)C)CC3)s2)ccn1 (stereo not shown) [Example 40] | 2.75
27 | CCOc1ccccc1C(=O)N1CCN(Cc2ccc(C(=O)NCCC(C)C)s2)CC1 [Example 118] | 1.72
28 | O=C(NCc1ccccc1C(F)(F)F)c1ccc(CN2CCN(C(=O)c3ccccn3)CC2)s1 [Example 16] | 0.534
29 | O=C(NCc1ccc(Cl)cc1Cl)c1ccc(CN2CCN(C3CCC3)CC2)s1 [Example 27] | 0.803
30 | Cc1ccc(C(=O)N2CCN(Cc3ccc(C(=O)NCc4ccccc4C(F)(F)F)s3)CC2)s1 [Example 152] | 2.07
31 | O=C(NCc1ccccc1OC(F)(F)F)c1ccc(CN2CCN(C(=O)c3nc(F)ccc3F)CC2)s1 [Example 129] | 1.73
